Reference: US10953012B2, “Heterocyclic compounds for the inhibition of pask” (BioEnergenix LLC, priority 2011, dated 2021)
pIC50: −log10 of the molar value.

Assays:
[1] = target: hPASK (full length) (Homo sapiens (Human), UniProt Q96RG2); experiment: PAS Kinase Luminescence Assay (Kinase-Glo), full length; type: biochemical
Experimental: (§1) PAS Kinase Luminescence Assay
(§2) One assay for purified hPASK activity utilizes the Kinase-Glo Luminescent Kinase Assay (Promega), which quantifies the amount of ATP remaining in solution following kinase reaction. The assay is carried out in a 96-well plate format and is performed by adding a volume of Kinase-Glo Reagent (Promega, catalog #V3771) equal to the volume of solution in the well of a completed kinase reaction. Kinase-Glo reagent contains Luciferase and its substrate. After addition to a kinase reaction it allows to measure luminescence. The amount of ATP left in solution at the time of Kinase-Glo Plus addition is directly proportional to the luminescence that is measured in each well, and inversely correlated with kinase activity.
(§3) Purified hPASK from insect cells (0.02 μg) is added to a 50 μL reaction mix containing 40 mM HEPES (pH 7.0), 100 mM KCl, 5 mM MgCl2, 1 mM DTT and 1 μg of MBP protein. Inhibitory compounds are then added and the mixture is incubated for 10 min at 25° C. before adding 5 μL of ATP (at desired concentration). The reaction is allowed to proceed at 25° C. for 1 hour before adding 50 μL of Kinase-Glo reagent. The luminescence is measured as soon as 10 minutes after Kinase-Glo reagent is added.
(§4) Results are shown below in Table 1, where NT means not tested.

[2] = target: hPASK (kinase domain) (Homo sapiens (Human), UniProt Q96RG2); experiment: PAS Kinase Luminescence Assay (Kinase-Glo), kinase domain; type: biochemical
hPASK (kinase domain), sequence (Q96RG2 999-1251): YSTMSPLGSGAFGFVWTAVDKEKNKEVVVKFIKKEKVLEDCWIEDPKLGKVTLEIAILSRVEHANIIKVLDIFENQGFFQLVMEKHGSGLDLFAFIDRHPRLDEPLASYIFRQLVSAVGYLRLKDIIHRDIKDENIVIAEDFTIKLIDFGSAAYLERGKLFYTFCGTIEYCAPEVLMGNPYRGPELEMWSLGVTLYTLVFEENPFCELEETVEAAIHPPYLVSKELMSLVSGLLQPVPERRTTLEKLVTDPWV
Experimental: as §1, §2, §3, §4

[3] = target: CK2a2 (Homo sapiens (Human), UniProt P19784); experiment: Biochemical Assay for CK2 Activity; settings: 33P-ATP radiochemical assay; read-out: IC50 CK2 a2
CK2a2, sequence (P19784 whole entry): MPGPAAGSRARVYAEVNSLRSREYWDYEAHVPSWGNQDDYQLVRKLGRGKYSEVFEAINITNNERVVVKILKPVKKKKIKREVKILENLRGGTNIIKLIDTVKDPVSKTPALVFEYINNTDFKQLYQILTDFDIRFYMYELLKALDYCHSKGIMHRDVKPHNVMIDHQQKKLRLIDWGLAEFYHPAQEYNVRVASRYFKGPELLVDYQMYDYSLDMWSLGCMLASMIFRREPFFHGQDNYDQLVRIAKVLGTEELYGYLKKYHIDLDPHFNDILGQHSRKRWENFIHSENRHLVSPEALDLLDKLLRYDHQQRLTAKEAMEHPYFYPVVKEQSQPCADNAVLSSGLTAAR
How it was run: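 GST-tagged full-length human CK2a2 from insect cells (1.2 nM) with 20 μM RRRDDDSDDD peptide, in pH 7.5 HEPES buffer with MgCl2, DTT and 1% DMSO. Reactions started with ³³P-ATP were run for 120 min at room temperature. Substrate phosphorylation was measured by P81 phosphocellulose filter binding and scintillation counting.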

[4] = target: PASK (UniProt #Q96RG2; residues 879-1323) (Homo sapiens (Human), UniProt Q96RG2); experiment: PASK ATP Radiochemical Assay; type: biochemical; settings: 33P-ATP radiochemical assay; read-out: IC50 Kinase Domain
PASK, sequence (Q96RG2 879-1323): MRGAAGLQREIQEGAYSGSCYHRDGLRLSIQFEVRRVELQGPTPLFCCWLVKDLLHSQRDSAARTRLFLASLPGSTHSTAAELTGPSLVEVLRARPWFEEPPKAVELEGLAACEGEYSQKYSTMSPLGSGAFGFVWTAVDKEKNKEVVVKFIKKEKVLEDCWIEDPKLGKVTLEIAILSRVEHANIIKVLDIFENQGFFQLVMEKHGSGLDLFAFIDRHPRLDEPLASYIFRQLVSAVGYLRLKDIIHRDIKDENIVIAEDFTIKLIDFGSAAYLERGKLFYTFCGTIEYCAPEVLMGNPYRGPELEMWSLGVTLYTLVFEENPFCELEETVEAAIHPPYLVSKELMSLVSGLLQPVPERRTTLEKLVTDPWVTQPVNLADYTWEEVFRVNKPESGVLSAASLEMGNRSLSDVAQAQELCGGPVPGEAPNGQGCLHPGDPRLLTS
How it was run: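 Radiometric kinase assay: GST-tagged PASK (5 nM final) from insect cells with Myelin Basic Protein (20 μM) in HEPES pH 7.5 buffer, 1% DMSO; reaction started with ^33P-ATP, 120 min at room temperature. Substrate phosphorylation captured on P81 paper and read by scintillation counting.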

hPASK (full length), sequence (Q96RG2 whole entry): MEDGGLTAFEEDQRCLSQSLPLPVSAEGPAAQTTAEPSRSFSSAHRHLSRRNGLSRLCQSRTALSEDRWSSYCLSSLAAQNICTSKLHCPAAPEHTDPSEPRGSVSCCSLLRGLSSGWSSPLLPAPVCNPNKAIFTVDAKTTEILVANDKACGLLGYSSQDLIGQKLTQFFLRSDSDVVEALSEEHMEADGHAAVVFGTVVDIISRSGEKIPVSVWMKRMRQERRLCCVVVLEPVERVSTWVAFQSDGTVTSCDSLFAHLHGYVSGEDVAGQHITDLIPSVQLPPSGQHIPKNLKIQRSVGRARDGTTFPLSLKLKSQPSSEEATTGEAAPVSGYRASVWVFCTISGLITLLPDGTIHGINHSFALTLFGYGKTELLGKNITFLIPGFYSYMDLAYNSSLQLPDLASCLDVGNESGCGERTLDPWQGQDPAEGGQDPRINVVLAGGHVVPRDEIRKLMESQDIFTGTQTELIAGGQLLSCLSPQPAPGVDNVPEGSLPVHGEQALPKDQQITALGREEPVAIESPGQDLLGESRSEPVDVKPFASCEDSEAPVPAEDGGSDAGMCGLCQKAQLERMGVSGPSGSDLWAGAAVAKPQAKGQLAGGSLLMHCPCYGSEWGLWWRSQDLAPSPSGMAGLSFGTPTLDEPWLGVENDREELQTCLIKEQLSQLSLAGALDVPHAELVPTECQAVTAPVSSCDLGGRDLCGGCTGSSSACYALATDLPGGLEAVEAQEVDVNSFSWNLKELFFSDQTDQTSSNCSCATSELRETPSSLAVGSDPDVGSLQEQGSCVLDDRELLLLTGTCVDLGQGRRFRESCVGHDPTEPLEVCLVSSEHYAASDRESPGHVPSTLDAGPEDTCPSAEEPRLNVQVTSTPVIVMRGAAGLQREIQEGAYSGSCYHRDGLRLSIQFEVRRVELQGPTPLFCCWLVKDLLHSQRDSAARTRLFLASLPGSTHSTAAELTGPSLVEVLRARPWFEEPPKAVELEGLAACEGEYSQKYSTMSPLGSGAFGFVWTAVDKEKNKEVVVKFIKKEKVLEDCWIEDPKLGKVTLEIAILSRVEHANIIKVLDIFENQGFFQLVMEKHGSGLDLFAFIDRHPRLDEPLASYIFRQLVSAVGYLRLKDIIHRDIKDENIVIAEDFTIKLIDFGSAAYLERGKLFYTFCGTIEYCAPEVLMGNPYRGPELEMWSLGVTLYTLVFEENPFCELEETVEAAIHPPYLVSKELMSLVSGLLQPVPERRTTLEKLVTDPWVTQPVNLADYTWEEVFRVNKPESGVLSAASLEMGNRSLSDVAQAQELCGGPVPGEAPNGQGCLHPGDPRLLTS

Work on `Cc1nn2c(=O)cc(-c3ccc([N+](=O)[O-])cc3)[nH]c2c1-c1ccc(Cl)cc1` [Example 1, 3-(4-Chloro-phenyl)-2-methyl-5-(4-nitro-phenyl)-4H-pyrazolo[1,5-a]pyrimidin-7-one] yielded a pIC50 [1] of no less than 5.00 and a pIC50 [2] of no less than 5.00.
In the case of `Cc1cc(=O)n2nc(-c3ccc(Cl)cc3)cc2[nH]1` [Example 2, 2-(4-Chloro-phenyl)-5-methyl-4H-pyrazolo[1,5-a]pyrimidin-7-one], the pIC50 [1] was no less than 5.00 and the pIC50 [2] was no more than 5.00.
Molecule `Cc1[nH]c2c(-c3ccc(Cl)cc3)cnn2c(=O)c1Cc1ccccc1` [Example 3, 6-Benzyl-3-(4-chloro-phenyl)-5-methyl-4H-pyrazolo[1,5-a]pyrimidin-7-one] has a pIC50 [1] of no less than 5.00 and a pIC50 [2] of no less than 5.00.
For `Cc1cc(=O)n2nc(-c3cccc(Br)c3)cc2[nH]1` [Example 4, 2-(3-Bromo-phenyl)-5-methyl-4H-pyrazolo[1,5-a]pyrimidin-7-one], the pIC50 [2] was no less than 5.00.
`COc1ccc(-c2c(Cc3ccccc3)nn3c(=O)cc(-c4ccccc4)[nH]c23)cc1` [Example 5, 2-Benzyl-3-(4-methoxy-phenyl)-5-phenyl-4H-pyrazolo[1,5-a]pyrimidin-7-one] was tested, and the pIC50 [1] was no more than 5.00 and the pIC50 [2] was no less than 5.00.
`COc1ccc(-c2c(C)nn3c(=O)cc(-c4ccccc4)[nH]c23)cc1` [Example 6, 3-(4-Methoxy-phenyl)-2-methyl-5-phenyl-4H-pyrazolo[1,5-a]pyrimidin-7-one] was tested, and the pIC50 [1] was no more than 5.00 and the pIC50 [2] was no less than 5.00.
`O=c1cc(-c2ccccc2)[nH]c2c(-c3ccccc3)c(Cc3ccccc3)nn12` [Example 7, 2-Benzyl-3,5-diphenyl-4H-pyrazolo[1,5-a]pyrimidin-7-one] showed a pIC50 [1] of no more than 5.00 and a pIC50 [2] of no less than 5.00.
With `Cc1nn2c(=O)cc(-c3ccccc3)[nH]c2c1-c1ccc(Cl)cc1` [Example 8, 3-(4-Chloro-phenyl)-2-methyl-5-phenyl-4H-pyrazolo[1,5-a]pyrimidin-7-one] the pIC50 [1] was no less than 5.00 and the pIC50 [2] was no less than 5.00.
For `O=c1cc(-c2ccc([N+](=O)[O-])cc2)[nH]c2c(-c3ccc(Cl)cc3)c(Cc3ccccc3)nn12` [Example 9, 2-Benzyl-3-(4-chloro-phenyl)-5-(4-nitro-phenyl)-4H-pyrazolo[1,5-a]pyrimidin-7-one], the pIC50 [1] was no less than 5.00 and the pIC50 [2] was no less than 5.00.
With `O=c1cc(-c2ccccc2)[nH]c2c(-c3ccc(Cl)cc3)c(Cc3ccccc3)nn12` [Example 10, 2-Benzyl-3-(4-chloro-phenyl)-5-phenyl-4H-pyrazolo[1,5-a]pyrimidin-7-one] the pIC50 [1] was no more than 5.00 and the pIC50 [2] was no more than 5.00.
In the case of `O=c1cc(-c2ccccc2)[nH]c2c(-c3cccc4ccccc34)c(Cc3ccccc3)nn12` [Example 11, 2-Benzyl-3-naphthalen-1-yl-5-phenyl-4H-pyrazolo[1,5-a]pyrimidin-7-one], the pIC50 [1] was no more than 5.00 and the pIC50 [2] was no more than 5.00.
`COc1ccc(Cc2nn3c(=O)cc(-c4ccccc4)[nH]c3c2-c2ccccc2)cc1` [Example 12, 2-(4-Methoxy-benzyl)-3,5-diphenyl-4H-pyrazolo[1,5-a]pyrimidin-7-one] was tested, and the pIC50 [1] was no more than 5.00 and the pIC50 [2] was no more than 5.00.
`Cc1nn2c(=O)c(C#N)c(-c3ccccc3)[nH]c2c1-c1ccccc1` [Example 13, 2-Methyl-7-oxo-3,5-diphenyl-4,7-dihydro-pyrazolo[1,5-a]pyrimidine-6-carbonitrile] gave a pIC50 [1] of no more than 5.00 and a pIC50 [2] of no less than 5.00.
Molecule `COc1ccc(-c2cc(=O)n3nc(C)c(-c4ccccc4)c3[nH]2)cc1` [Example 14, 5-(4-Methoxy-phenyl)-2-methyl-3-phenyl-4H-pyrazolo[1,5-a]pyrimidin-7-one] has a pIC50 [1] of no less than 5.00 and a pIC50 [2] of no less than 5.00.
`Cc1nn2c(=O)cc(-c3ccccc3)[nH]c2c1-c1ccc(F)cc1` [Example 15, 3-(4-Fluoro-phenyl)-2-methyl-5-phenyl-4H-pyrazolo[1,5-a]pyrimidin-7-one] was tested, and the pIC50 [1] was no more than 5.00 and the pIC50 [2] was no more than 5.00.
Molecule `COc1ccccc1-c1cc(=O)n2nc(C)c(-c3ccccc3)c2[nH]1` [Example 16, 5-(2-Methoxy-phenyl)-2-methyl-3-phenyl-4H-pyrazolo[1,5-a]pyrimidin-7-one] has a pIC50 [1] of no less than 5.00 and a pIC50 [2] of no less than 5.00.
`Cc1nn2c(=O)cc(-c3ccc(Cl)cc3)[nH]c2c1-c1ccccc1` [Example 17, 5-(4-Chloro-phenyl)-2-methyl-3-phenyl-4H-pyrazolo[1,5-a]pyrimidin-7-one] was tested, and the pIC50 [1] was no less than 5.00 and the pIC50 [2] was no less than 5.00.
`CCCc1cc(=O)n2nc(Cc3ccccc3)c(-c3ccc(Cl)cc3)c2[nH]1` [Example 18, 2-Benzyl-3-(4-chloro-phenyl)-5-propyl-4H-pyrazolo[1,5-a]pyrimidin-7-one] gave a pIC50 [1] of no more than 5.00 and a pIC50 [2] of no more than 5.00.
Molecule `COc1ccc(-c2c(C)nn3c(=O)cc(-c4ccccc4)[nH]c23)cc1` [Example 20, 3-(4-Methoxy-phenyl)-2-methyl-5-phenyl-4H-pyrazolo[1,5-a]pyrimidin-7-one] has a pIC50 [2] of no more than 5.00.
`O=c1cc(-c2ccc3c(c2)OCCO3)[nH]c2c(-c3ccccc3)cnn12` [Example 40, 5-(2,3-Dihydrobenzo[b][1,4]dioxin-6-yl)-3-phenylpyrazolo[1,5-a]pyrimidin-7(4H)-one] showed a pIC50 [2] of no less than 5.00 and a pIC50 [3] of no less than 5.00.
Molecule `Cc1nn2c(=O)cc(-c3ccc4c(c3)OCCO4)[nH]c2c1-c1ccccc1` [Example 41, 5-(2,3-Dihydrobenzo[b][1,4]dioxin-6-yl)-2-methyl-3-phenylpyrazolo[1,5-a]pyrimidin-7(4H)-one] has a pIC50 [2] of no less than 5.00.
Molecule `O=c1cc(-c2ccc3c(c2)OCO3)[nH]c2c(-c3ccccc3)cnn12` [Example 42, 5-(Benzo[d][1,3]dioxol-5-yl)-3-phenylpyrazolo[1,5-a]pyrimidin-7(4H)-one] has a pIC50 [2] of no less than 5.00.
`Cc1nn2c(=O)cc(-c3ccc4c(c3)OCO4)[nH]c2c1-c1ccccc1` [Example 43, 5-(Benzo[d][1,3]dioxol-5-yl)-2-methyl-3-phenylpyrazolo[1,5-a]pyrimidin-7(4H)-one] was tested, and the pIC50 [2] was no less than 5.00 and the pIC50 [3] was no less than 5.00.
`O=c1cc(-c2ccc3c(c2)OCCO3)[nH]c2c(-c3ccccn3)cnn12` [Example 44, 5-(2,3-Dihydrobenzo[b][1,4]dioxin-6-yl)-3-(pyridin-2-yl)pyrazolo[1,5-a]pyrimidin-7(4H)-one] showed a pIC50 [2] of no less than 5.00 and a pIC50 [3] of no less than 5.00.
Molecule `O=c1cc(-c2ccc3c(c2)OCCO3)[nH]c2c(-c3cccnc3)cnn12` [Example 45, 5-(2,3-Dihydrobenzo[b][1,4]dioxin-6-yl)-3-(pyridin-3-yl)pyrazolo[1,5-a]pyrimidin-7(4H)-one] has a pIC50 [2] of no less than 5.00 and a pIC50 [3] of no less than 5.00.
With `O=c1cc(-c2ccc3c(c2)OCO3)[nH]c2c(-c3cccnc3)cnn12` [Example 46, 5-(Benzo[d][1,3]dioxol-5-yl)-3-(pyridin-3-yl)pyrazolo[1,5-a]pyrimidin-7(4H)-one] the pIC50 [2] was no less than 5.00.
For `Cc1nn2c(=O)cc(-c3ccc4c(c3)OCO4)[nH]c2c1-c1ccccn1` [Example 48, 5-(Benzo[d][1,3]dioxol-5-yl)-2-methyl-3-(pyridin-2-yl)pyrazolo[1,5-a]pyrimidin-7(4H)-one], the pIC50 [2] was no less than 5.00 and the pIC50 [3] was no less than 5.00.
Work on `Cc1nn2c(=O)cc(-c3ccc4c(c3)OCO4)[nH]c2c1-c1cccnc1` [Example 49, 5-(Benzo[d][1,3]dioxol-5-yl)-2-methyl-3-(pyridin-3-yl)pyrazolo[1,5-a]pyrimidin-7(4H)-one] yielded a pIC50 [2] of no less than 5.00.
`Cc1nn2c(=O)cc(-c3ccc4c(c3)OCCO4)[nH]c2c1-c1ccccn1` [Example 50, 5-(2,3-Dihydrobenzo[b][1,4]dioxin-6-yl)-2-methyl-3-(pyridin-2-yl)pyrazolo[1,5-a]pyrimidin-7(4H)-one] was tested, and the pIC50 [2] was no less than 5.00 and the pIC50 [3] was no less than 5.00.
In the case of `Cc1nn2c(=O)cc(-c3ccc4c(c3)OCCO4)[nH]c2c1-c1cccnc1` [Example 51, 5-(2,3-Dihydrobenzo[b][1,4]dioxin-6-yl)-2-methyl-3-(pyridin-3-yl)pyrazolo[1,5-a]pyrimidin-7(4H)-one], the pIC50 [2] was no less than 5.00 and the pIC50 [3] was no less than 5.00.
Work on `O=c1cc(-c2ccccc2)[nH]c2c(-c3ccccn3)cnn12` [Example 52, 5-Phenyl-3-(pyridin-2-yl)pyrazolo[1,5-a]pyrimidin-7(4H)-one] yielded a pIC50 [2] of no less than 5.00.
Work on `Cc1nn2c(=O)cc(-c3ccc4cc[nH]c4c3)[nH]c2c1Cc1ccccc1` [Example 74, 3-Benzyl-5-(1H-indol-6-yl)-2-methylpyrazolo[1,5-a]pyrimidin-7(4H)-one] yielded a pIC50 [2] of no less than 5.00, a pIC50 [3] of no more than 5.00 and a pIC50 [4] of no less than 5.00.
With `O=c1cc(-c2cccnc2)[nH]c2c(-c3ccc(F)cc3)cnn12` [Example 78, 3-(4-Fluorophenyl)-5-(pyridin-3-yl)pyrazolo[1,5-a]pyrimidin-7(4H)-one] the pIC50 [2] was no less than 5.00.
